Results reported in ChEMBL document CHEMBL3046588, “Design, synthesis, and in vitro evaluation of cytotoxic activity of new substituted 1,4-benzoquinones and hydroquinones” (2007).

Key:
Format in all cases: functional
[1] = Cytotoxicity against Homo sapiens (human) melanoma cellsafter 48 hr by SRB assay; conditions: Melanoma cell
[2] = Cytotoxicity against Homo sapiens (human) non-small cell lung cancer cells after 48 hr by SRB assay; conditions: Cancer cell lines
[3] = Cytotoxicity against Homo sapiens (human) prostate cancer cells after 48 hr by SRB assay; conditions: Cancer cell lines
[4] = Cytotoxicity against Homo sapiens (human) ovarian cancer cells after 48 hr by SRB assay; conditions: Cancer cell lines
SF-268 = assay: Cytotoxicity against Homo sapiens (human) SF268 cells assessed as cellular growth after 48 hr by Alamar blue assay; set-up: concentration or dose not given beside the values
[5] = Cytotoxicity against Homo sapiens (human) CNS cancer cells after 48 hr by SRB assay; conditions: Cancer cell lines
MCF7 = assay: Cytotoxicity against Homo sapiens (human) MCF7 cells assessed as cellular growth after 48 hr by Alamar blue assay; set-up: concentration or dose not given beside the values
SR = assay: Cytotoxicity against Homo sapiens (human) SR cells after 48 hr by SRB assay
[6] = Cytotoxicity against Homo sapiens (human) breast cancer cells after 48 hr by SRB assay; conditions: Cancer cell lines; for LC50 (concentration giving 50% net cell kill): pooled result: one value given for 9 cell lines, strains, targets or settings
NCI-H460 = assay: Cytotoxicity against Homo sapiens (human) NCI-H460 cells assessed as cellular growth after 48 hr by Alamar blue assay; set-up: concentration or dose not given beside the values
[7] = Cytotoxicity against Homo sapiens (human) colon cancer cells after 48 hr by SRB assay; conditions: Cancer cell lines
[8] = Cytotoxicity against Homo sapiens (human) leukemia cells after 48 hr by SRB assay; conditions: Leukemia cell
[9] = Cytotoxicity against Homo sapiens (human) renal cancer cells after 48 hr by SRB assay; conditions: Cancer cell lines

| SMILES | GI50 [1] [µM] | TGI [1] [µM] | GI50 [2] [µM] | TGI [2] [µM] | GI50 [3] [µM] | TGI [3] [µM] | GI50 [4] [µM] | TGI [4] [µM] | Activity (SF-268) [%] | GI50 [5] [µM] | TGI [5] [µM] | Activity (MCF7) [%] | GI50 [6] [µM] | TGI [6] [µM] | LC50 (concentration giving 50% net cell kill) [6] [µM] | Activity (NCI-H460) [%] | GI50 [7] [µM] | TGI [7] [µM] | GI50 [8] [µM] | TGI [8] [µM] | further results |
| --- | --- | --- | --- | --- | --- | --- | --- | --- | --- | --- | --- | --- | --- | --- | --- | --- | --- | --- | --- | --- | --- |
| Cc1nn(-c2ccc(Br)cc2)c(C)c1CC(=O)c1cc(O)ccc1O | 13.1 | 31.4 | 12 | 32.9 | 12.4 | 47.3 | 14.1 | 42.4 | <32 | 11.3 | 29.8 | <32 | 11.4 | 36.3 | 48.8 | <32 | 11.2 | 42.1 | 7.71 | 46.6 | GI50 (SR): 0.91 µM; GI50 [9]: 12 µM; TGI [9]: 36.7 µM |
| CC(=O)NS(=O)(=O)c1ccc(-n2nc(-c3ccccc3)cc2C2=CC(=O)C=CC2=O)cc1 | 92 | 100 | 100 | 100 | 100 | 100 | 100 | 100 | <32 | 100 | 100 | <32 | 78.5 | 100 | 100 | <32 | 78.4 | 100 | 57.8 | 91.2 | GI50 [9]: 90 µM; TGI [9]: 100 µM |
| O=C1C=CC(=O)C(c2cc(-c3ccc(Cl)cc3)nn2-c2ccccc2)=C1 | 69.4 | 55.4 | 53.5 | 70.1 | 36.5 | 66.3 | 67.3 | 81.7 | <32 | 65.3 | 55.8 | <32 | 51.5 | 69.3 | 95.6 | <32 | 42.4 | 69.7 | 27.8 | 87.1 | GI50 [9]: 55.6 µM; TGI [9]: 53.3 µM |
| CC(=O)NS(=O)(=O)c1ccc(-n2nc(-c3ccc(Cl)cc3)cc2-c2cc(O)ccc2O)cc1 | 36.2 | 60.1 | 36.2 | 73.7 | 17.7 | 38.8 | 44.6 | 81.2 | <32 | 38.5 | 93.9 | <32 | 55.3 | 82.1 | 91.2 | <32 | 37.6 | 66.5 | 37.4 | 92.6 | GI50 [9]: 23.5 µM; TGI [9]: 59.8 µM |
